Literature values, collected in US20090004170A1, “COMPOSITION COMPRISING COENZYME Q10” (Kaneka Corporation, priority 2007, published 2009).

Experiments:
[1] = not given; remark: listed apart in the source

COC1=C(OC)C(=O)C(C/C=C(\C)CC/C=C(\C)CC/C=C(\C)CC/C=C(\C)CC/C=C(\C)CC/C=C(\C)CC/C=C(\C)CC/C=C(\C)CC/C=C(\C)CCC=C(C)C)=C(C)C1=O [coenzyme Q10]
absorbability by oral ingestion: extremely low | solubility in water [1]: sparingly soluble
